According to patent US20230225985A1, “TERPE[…] AND THEIR USE” (Phytotherapeutix Ltd., priority 2020, published 2023):
Where “and” joins values, the source holds several entries; their conditions need not be identical. Equal values may be shown once. Read-outs that look alike come from different tables or passages of the source.

What was measured:
Format in all cases: in vivo, Mouse (ICR:CD-1)
[1] = PK study: plasma levels after i.p. administration (LC/MS/MS); conditions: 100 mg/kg i.p.; for Time of maximal concentration in plasma after the injection: sampling at 30, 60, 120 min; for concentration at 30 min / concentration at 60 min / concentration at 120 min: CD-1, mouse, plasma, intraperitoneal, 100 mg/kg
Method: Route(s) of administration: Intraperitoneal (i.p.)
Vehicle for the test compounds and CBD: 1:1:18 ethanol:cremophor (Kolliphor) EL:0.9% saline
IP administration: 0.5 h (30 min), 1 h, 2 h,
For testing of each compound, six CD-1 mice were divided into 2 groups of 3. Animals were administered test agents via i.p. route and blood collected at 30, 60 and 120 min, administration as outlined in Table 1. Blood samples were collected in EDTA-coated microfuge tubes, inverted and placed on an ice pack prior to centrifugation and storage at −70° C. Samples were extracted using an acetonitrile/protein precipitation method and levels of test agent analysed by LC/MS/MS.
Bioanalytical detection method was developed using an LC/MS/MS (ABI 5000 or 5500). Standard curves of the test agent were prepared in an appropriate biological matrix (plasma). Levels of test article was measured in plasma as per the developed method.
Levels were determined by extrapolating the concentration from a standard curve using linear regression analysis. Method development and bioanalysis was performed by a partner company, Keystone Bioanalytical (North Wales, Pa., US).

[2] = system: MES mouse model of seizures; test: Maximal Electroshock (MES) seizure study; conditions: for Effect in MES study (latency to tonic hindlimb seizure) vs vehicle: 200 mg/kg IP
Method: Route(s) of administration: Intraperitoneal (i.p.) and per oral (p.o.)
(§1) Vehicle for the test compounds: 1:1:18 ethanol:cremophor (Kolliphor) EL:0.9% saline
Vehicle for phenytoin: 0.5% MC in water
Dose Levels: 100-200 mg/kg (Table 2), Phenytoin 60 mg/kg
Interval between dose and evaluation: 30 min for test articles and phenytoin, 60 min for CBD
Animals were administered vehicle, phenytoin, CBD or test compounds and gross behavioural observations were done for 30 minutes. Proparacaine hydrochloride ophthalmic solution (Butler AHS, Dublin, Ohio) was applied approximately 10 minutes prior to testing to numb the eyes. Thirty to sixty minutes after administration of vehicle, phenytoin, CBD or test compounds, 0.9% saline solution (sodium chloride in water) was applied to both eyes and electro-convulsions were produced by an alternating current delivered via corneal electrodes by a Rodent Shocker generator at a frequency of 60 Hz (Harvard Apparatus, Holliston, Mass.). Parameters for the ICR:CD1 mice were 0.2 s stimulus duration at an intensity of 25 mA. The criterion for seizure occurrence were presence of a tonic hind limb extension, defined as extension exceeding a 90-degree angle with the plane of the body. […] Any seizure activity (i.e. clonic seizures defined as rapid spasms or jerky movements of the limbs) prior to tonic hind limb seizure were recorded as presence of seizure (noted as 1-yes, 0-no). After seizure exhibition or 20-second timeout, mice were euthanized via cervical dislocation.
(§2) The data was expressed as mean+SEM. Statistical analysis using one-way ANOVA with post-hoc Fisher's LSD test was used to determine statistical significance compared to the vehicle-treated animals.

[3] = system: PTZ mouse model of seizures; test: PTZ-induced seizures study; conditions: for Protection from clonic seizures (PTZ) vs vehicle / Protection from tonic hindlimb seizures (PTZ) vs vehicle: 200 mg/kg IP, PTZ 100 mg/kg i.p.
Method: Route(s) of administration: Intraperitoneal (i.p.) and per oral (p.o.) (Diazepam)
as §1
Vehicle for diazepam: 0.5% MC, 0.1% Tween 80 in water
Interval between dose and evaluation: 30 min for test articles and diazepam, 60 min for CBD
Mice were acclimated to the procedure room for at least 30 minutes. Pentylenetetrazole (PTZ; SigmaAldrich) was formulated in water to a concentration of 20 mg/ml. Injections of PTZ were made at a volume of 5 ml/kg to produce a final dose of 100 mg/kg. PTZ injections were i.p. Diazepam was formulated at a concentration of 2 mg/ml and administered at volume of 10 ml/kg to produce a final dose of 20 mg/kg. Time to initial myoclonic and tonic hindlimb extensor response was measured. A 10-min maximum latency to seizure was imposed.
as §2

[4] = 30 min pretreatment, listed as (−)-trans CBD-PET
[5] = 30 min pretreatment, listed as CBD-PET
[6] = 30 min pretreatment, listed as (−)-trans CBD-PET-OH
[7] = 30 min pretreatment, listed as CBD-PET-OH

Structure (SMILES): C=C(C)[C@@H]1CCC(C)=C[C@H]1c1c(O)cc(CCc2ccccc2)cc1O [(−)-trans-CBD-PET, (1′R,2′R)-5′-methyl-4-phenethyl-2′-(prop-1-ene-2-yl)-1′,2′,3′,4′-tetrahydro-[1,1′-biphenyl]-2,6-diol]
- (—)-trans-CBD-PET in plasma ([1]; 30 min, individual animals): 3519.2 ng/mL and 3872.3 ng/mL
- (—)-trans-CBD-PET in plasma ([1]; 60 min, individual animals): 2729.5 ng/mL and 1728.7 ng/mL
- (—)-trans-CBD-PET in plasma ([1]; 120 min, individual animals): 2188.6 ng/mL and 770.3 ng/mL and 982.7 ng/mL
- Time of maximal concentration in plasma after the injection [1]: 30 min
- concentration at 30 min ([1]; 30 min, average of 3 mice, read-out: Average (ng/ml), (—)-trans-CBD-PET in plasma): 3810 ng/mL
- concentration at 30 min ([1]; 30 min, individual animals, read-out: (—)-trans-CBD-PET in plasma): 4030 ng/mL
- concentration at 60 min ([1]; 60 min, average of 3 mice, read-out: Average (ng/ml), (—)-trans-CBD-PET in plasma): 2140 ng/mL
- concentration at 60 min ([1]; 60 min, individual animals, read-out: (—)-trans-CBD-PET in plasma): 1960 ng/mL
- concentration at 120 min ([1]; 120 min, average of 3 mice, read-out: Average (ng/ml), (—)-trans-CBD-PET in plasma): 1310 ng/mL
- Effect in MES study (latency to tonic hindlimb seizure) vs vehicle ([2]; 30 min pretreatment): inactive
- Protection from clonic seizures (PTZ) vs vehicle [3, 4]: significant protection
- Protection from tonic hindlimb seizures (PTZ) vs vehicle [3, 4]: significant effect
- Protection from clonic seizures (PTZ) vs vehicle [3, 5]: activity against both clonic and tonic seizures
- Protection from tonic hindlimb seizures (PTZ) vs vehicle [3, 5]: activity against both clonic and tonic seizures

Structure (SMILES): C=C(C)[C@@H]1CCC(C)=C[C@H]1c1c(O)cc(CCc2ccc(O)cc2)cc1O [(−)-trans-CBD-PET-OH, (1′R,2′R)-4-(4-hydroxyphenethyl)-5′-methyl-2′-(prop-1-ene-2-yl)-1′,2′,3′,4′-tetrahydro-[1,1′-biphenyl]-2,6-diol]
- (—)-trans-CBD-PET-OH in plasma ([1]; 30 min, individual animals): 8897.4 ng/mL and 8936.2 ng/mL
- (—)-trans-CBD-PET-OH in plasma ([1]; 60 min, individual animals): 8877.8 ng/mL and 8055.5 ng/mL
- (—)-trans-CBD-PET-OH in plasma ([1]; 120 min, individual animals): 2831.1 ng/mL and 3274.9 ng/mL
- Time of maximal concentration in plasma after the injection [1]: 30 min
- concentration at 30 min ([1]; 30 min, average of 3 mice, read-out: Average (ng/ml), (—)-trans-CBD-PET-OH in plasma): 8120 ng/mL
- concentration at 30 min ([1]; 30 min, individual animals, read-out: (—)-trans-CBD-PET-OH in plasma): 6520 ng/mL
- concentration at 60 min ([1]; 60 min, average of 3 mice, read-out: Average (ng/ml), (—)-trans-CBD-PET-OH in plasma): 7920 ng/mL
- concentration at 60 min ([1]; 60 min, individual animals, read-out: (—)-trans-CBD-PET-OH in plasma): 6840 ng/mL
- concentration at 120 min ([1]; 120 min, average of 3 mice, read-out: Average (ng/ml), (—)-trans-CBD-PET-OH in plasma): 3460 ng/mL
- concentration at 120 min ([1]; 120 min, individual animals, read-out: (—)-trans-CBD-PET-OH in plasma): 4290 ng/mL
- Effect in MES study (latency to tonic hindlimb seizure) vs vehicle [2, 6]: significantly different from vehicle
- Effect in MES study (latency to tonic hindlimb seizure) vs vehicle [2, 7]: effective
- Protection from tonic hindlimb seizures (PTZ) vs vehicle [3, 6]: significant effect
- Protection from tonic hindlimb seizures (PTZ) vs vehicle [3, 7]: particularly effective against tonic seizures

Structure (SMILES): C=C(C)[C@@H]1CCC(C)=C[C@H]1c1c(O)cc(CCCCC)cc1O [Cannabidiol, reference compound]
- Effect in MES model vs vehicle ([2]; 100 mg/kg IP, 60 min prior to MES): did not produce a significant effect
- Effect in PTZ model vs vehicle ([3]; 100 mg/kg IP, 60 min prior to PTZ): did not produce a significant effect

Structure (SMILES): CN1C(=O)CN=C(c2ccccc2)c2cc(Cl)ccc21 [diazepam, reference compound]
- Protection from the seizures (PTZ, clonic and tonic hindlimb) ([3]; 30 mg/kg PO (Table 3), 30 min pretreatment, positive control): 100%

Structure (SMILES): O=C1NC(=O)C(c2ccccc2)(c2ccccc2)N1 [phenytoin, reference compound]
- Protection from the seizures (MES) ([2]; 60 mg/kg PO, 30 min pretreatment, positive control): 100%
